Measurements published in patent US7148253B2, “4-thio coumarins” (priority 2002, dated 2006).
“And” between values parts separate entries of the source, which are not always exact repeats. Identical values can stand only once.

How the values were obtained:
[1] = system: HCV RNA in stably HCV RNA-replicating cell line AVA5; test: Primary in vitro anti-HCV screen: intracellular HCV RNA levels in AVA5 cells (branched DNA assay); assay type: cell-based, Hepatitis C virus; conditions: for HCV % Control / HCV Copies/ml: AVA5, duplicate cultures
Description: Primary in vitro anti-HCV screen. The antiviral activity of test compounds were assayed in the stably HCV RNA-replicating cell line, AVA5, derived by transfection of the human hepatoblastoma cell line, Huh7 (Blight, et al., 2000, Science 290: 1972). The test compounds were added to dividing cultures once daily for three days. The media was changed with each addition of the compounds. […] Intracellular HCV RNA levels and cytotoxicity are assessed 24 hours after the last dose of compound.
(§1) Assays were conducted using a single dose of test compound. Duplicate cultures for HCV RNA levels (on 48-well plates) and triplicate cultures for cytotoxicity (on 96-well plates) are used.
(§2) Intracellular HCV RNA levels were measured using a commercial assay (Veresant®, Bayer Diagnostics, Inc. Ross, et al. (2002) J. Virol. Meth. 101:159–168, Quantitation of hepatitic C virus RNA by third generation branched DNA-based signal amplification assay). Cytotoxicity was measured using an established neutral red dye uptake assay (Korba, B. E. and J. L. Gerin. 1992. Use of a standardized cell culture assay to determine activities of nucleoside analogs against hepatitis B virus relication. Antivir. Res. 19:55–70). HCV RNA levels in the treated cultures are expressed as a percentage of the mean levels of RNA detected in untreated cultures. A level of 30% or less, HCV RNA relative to control cultures may be considered to be a positive antiviral effect. A level of 50% or less, neutral red dye uptake relative to control cultures may be considered to be a cytotoxic effect.

AVA5 cell line [2] = test: ATP Cell Viability
[3] = system: HCV replicons in AVA5 cell cultures; test: Secondary in vitro anti-HCV dose-response assay: intracellular HCV RNA; parameters: Intracellular HCV RNA Levels: dose or concentration left out as unconfirmed; conditions: for Intracellular HCV RNA Levels: normalized to β-actin RNA; for S.I. (CC50/EC90): selectivity index, AVA5
Description: (§3) Dividing cultures of AVA5 cells are treated once daily for three days (media is changed with each addition of compound) with 4 concentrations of test compound (2 cultures per concentration). […] Intracellular HCV RNA levels and cytotoxicity are assessed 24 hours following the last treatment as described for the primary assays. The 50% and 90% effective antiviral concentrations (EC50, EC90) and the 50% cytotoxic concentrations (CC50) are calculated and used to generate Selectivity Indexes (S.I., CC50/EC50). An S.I of 10, or greater, may be considered to be a selective antiviral effect.
(§4) The values presented in Table 6 were calculated by linear regression analysis using data from all treated cultures. The standard deviation was calculated using the error of regression generated from the linear regression analysis.
Analysis of intracellular HCV RNA was performed 24 hours following the final treatment. A total of […] were treated a each concentration for each compound. HCV RNA levels were normalized to the level of β-actin RNA in each individual sample.

[4] = system: AVA5 cell line (derived from human hepatoblastoma cell line Huh7); test: Primary screen cytotoxicity: neutral red dye uptake; assay type: cell-based; conditions: for Neutral Red % Control / Neutral Red O.D.: AVA5
Description: (§5) Primary in vitro anti-HCV screen. The antiviral activity of test compounds were assayed in the stably HCV RNA-replicating cell line, AVA5, derived by transfection of the human hepatoblastoma cell line, Huh7 (Blight, et al., 2000, Science 290: 1972). The test compounds were added to dividing cultures once daily for three days. The media was changed with each addition of the compounds. Cultures generally start the assay at 30–50% confluence and reach confluence during the last day of treatment.
as §1, §2

AVA5 cells = test: Secondary dose-response assay: cytotoxicity (CC50); conditions: AVA5, three days treatment; linear regression
Description: as §3, §4

AVA5 cell line [5] = test: MTS Cell Viability
[6] = system: HCV RNA-replicating cell line AVA5; test: Normalized Viral Assay; assay type: cell-based, Hepatitis C virus
Description: as §5

[7] = Primary screen cytotoxicity: neutral red dye uptake; assay type: cell-based, human; conditions: human; toxicity control, no antiviral activity; read-out: approximate CC90
Description: as §5, §1, §2

[8] = Secondary dose-response assay: cytotoxicity (CC50); conditions: human
Description: as §3, §4

[9] = AVA5, HCV RNA, linear regression

SMILES	ATP Cell Viability (AVA5 cell line [2]; 1 μM)	ATP Cell Viability (AVA5 cell line [2]; 5 μM)	ATP Cell Viability (AVA5 cell line [2]; 10 μM)	Intracellular HCV RNA Levels [3]; 10 [genomic copies/cell]	Intracellular HCV RNA Levels [3]; 30 [genomic copies/cell]	Intracellular HCV RNA Levels [3]; 100 [genomic copies/cell]	Intracellular HCV RNA Levels [3]; 300 [genomic copies/cell]	EC50 [3, 9] [µM]	EC90 [3, 9] [µM]	S.I. (CC50/EC90) [3]	CC50 (AVA5 cells) [µM]	MTS Cell Viability (AVA5 cell line [5]; 1 μM)	MTS Cell Viability (AVA5 cell line [5]; 5 μM)	MTS Cell Viability (AVA5 cell line [5]; 10 μM)	Normalized Viral Assay ([6]; 1 μM)	Normalized Viral Assay ([6]; 5 μM)	Normalized Viral Assay ([6]; 10 μM)	other results
O=c1cc(Sc2ccc(F)cc2F)c2cc(F)ccc2o1 [compound 910]	115.34	97.48	84.78	1176970 ± 27620	494605 ± 6235	163575 ± 6325	58165 ± 7635	1.4 ± 0.1	12 ± 1.1	>214	> 300	105.74	92.64	79.43	32.93	9.51	3.41	HCV % Control ([1]; 10 μM, HCV RNA as percentage of untreated cultures, listed as VQ_910): 20 % Control and 18 % Control; HCV Copies/ml ([1]; 10 μM, once daily for three days, listed as VQ_910): 266217 Copies/ml and 246717 Copies/ml; Neutral Red % Control ([4]; 10 μM, dye uptake relative to untreated cultures, listed as VQ_910): 99 % Control and 103 % Control; Neutral Red O.D. ([4]; 10 μM, listed as VQ_910): 2.214 O.D. and 2.293 O.D.
NC(=O)c1ncn([C@@H]2O[C@H](CO)[C@@H](O)[C@H]2O)n1 [Ribavirin, ribavirin, reference compound]				1379495 ± 69125	640505 ± 29715	250445 ± 5015				1.9								HCV % Control ([1]; 100 μM): 13 % Control and 9 % Control; HCV Copies/ml ([1]; 100 μM): 180813 Copies/ml and 115331 Copies/ml; effect on HCV RNA (treatment controls, in words) ([1]; at the control concentrations used): induced loss of HCV RNA; EC50 ([3]; Hepatitis C virus, Ava5): 29 ± 2.5 µM; EC90 ([3]; Hepatitis C virus, Ava5): 140 ± 11 µM; CC90 at 3 days [7]: ~100 µM; Neutral Red % Control ([4]; 100 μM): 18 % Control and 17 % Control; Neutral Red O.D. ([4]; 100 μM): 0.394 O.D. and 0.378 O.D.; effect on cell viability (treatment control, in words) ([4]; compared with the loss of HCV RNA): reduction in cell viability was nearly equivalent; CC50 at 3 days [8]: 54 ± 2.4 µM
O=c1cc(Sc2c(Cl)cccc2Cl)c2cc(F)ccc2o1 [compound 902]	97.96	101.74	62.95	919880 ± 44000	332975 ± 6745	91645 ± 7385	12940 ± 5640	0.491 ± 0.024	5.2 ± 0.6	>611	> 300	116.05	86.70	84.52	41.92	12.03	5.61	HCV % Control ([1]; 10 μM, HCV RNA as percentage of untreated cultures, listed as VQ_902): 9 % Control and 7 % Control; HCV Copies/ml ([1]; 10 μM, once daily for three days, listed as VQ_902): 124712 Copies/ml and 92446 Copies/ml; Neutral Red % Control ([4]; 10 μM, dye uptake relative to untreated cultures, listed as VQ_902): 95 % Control and 100 % Control; Neutral Red O.D. ([4]; 10 μM, listed as VQ_902): 2.122 O.D. and 2.228 O.D.
